According to patent US20240308976A1, “COMPOUNDS THAT MEDIATE PROTEIN DEGRADATION AND USES THEREOF” (Monte Rosa Therapeutics, Inc., priority 2021, published 2024):

Experiments:
CRBN-DDB1 = CRBN-DDB1 (Homo sapiens, UniProt Q96SW2); assay: Compound binding to CRBN by HTRF assay; conditions: CRBN-DDB1 2.5 nM, Cy5-Thalidomide 100 nM, 30 min at ambient temperature; read-out: HTRF Class (Cereblon binding, HTRF IC50)
In short: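 Cy5-thalidomide (100 nM) displacement from His-tagged CRBN-DDB1 (2.5 nM) read by terbium-cryptate HTRF (665/620 nm), in 20 mM HEPES, 20 mM NaCl, 0.2 mM TCEP, 0.2 mM EDTA, 0.005% Tween20. Compounds tested as 10-point 1:3 series, 30 min at ambient temperature. Signal normalised to DMSO and lenalidomide controls; IC50 fitted, Ki by Cheng-Prusoff.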

GSPT1 = molecular target: T1, GSPT1 (Homo sapiens, UniProt P15170+Q96SW2); assay: Immunofluorescence assay for activity to degrade GSPT1 in CAL-51 cells; type: cell-based; conditions: 6 h treatment, read-out: IF Class (GSPT1 degradation, DC50)
T1 construct: CAL-51 cells were purchased from DSMZ (cat. Number ACC302); host or cells: CAL-51
In short: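 CAL-51 cells treated 6 h with compound (30 μM to 0.1 nM), fixed, immunostained for GSPT1 with DAPI and phalloidin counterstains, imaged by high-content microscopy. Mean per-cell GSPT1 intensity normalized to controls; DC50 by non-linear regression.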

CRBN-DDB1, sequence (Q96SW2 whole entry): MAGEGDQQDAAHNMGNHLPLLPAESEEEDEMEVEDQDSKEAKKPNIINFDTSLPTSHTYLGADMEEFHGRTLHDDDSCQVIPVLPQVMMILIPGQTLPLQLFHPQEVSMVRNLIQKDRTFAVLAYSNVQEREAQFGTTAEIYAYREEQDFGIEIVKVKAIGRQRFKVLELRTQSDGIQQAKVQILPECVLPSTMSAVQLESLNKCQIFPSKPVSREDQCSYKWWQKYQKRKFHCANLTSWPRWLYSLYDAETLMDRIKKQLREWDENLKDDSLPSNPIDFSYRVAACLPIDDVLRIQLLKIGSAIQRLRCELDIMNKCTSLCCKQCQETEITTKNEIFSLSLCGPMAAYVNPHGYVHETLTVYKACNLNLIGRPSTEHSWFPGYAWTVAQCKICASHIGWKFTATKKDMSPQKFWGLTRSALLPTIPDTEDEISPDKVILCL
CRBN-DDB1, sequence (Q16531 whole entry partner): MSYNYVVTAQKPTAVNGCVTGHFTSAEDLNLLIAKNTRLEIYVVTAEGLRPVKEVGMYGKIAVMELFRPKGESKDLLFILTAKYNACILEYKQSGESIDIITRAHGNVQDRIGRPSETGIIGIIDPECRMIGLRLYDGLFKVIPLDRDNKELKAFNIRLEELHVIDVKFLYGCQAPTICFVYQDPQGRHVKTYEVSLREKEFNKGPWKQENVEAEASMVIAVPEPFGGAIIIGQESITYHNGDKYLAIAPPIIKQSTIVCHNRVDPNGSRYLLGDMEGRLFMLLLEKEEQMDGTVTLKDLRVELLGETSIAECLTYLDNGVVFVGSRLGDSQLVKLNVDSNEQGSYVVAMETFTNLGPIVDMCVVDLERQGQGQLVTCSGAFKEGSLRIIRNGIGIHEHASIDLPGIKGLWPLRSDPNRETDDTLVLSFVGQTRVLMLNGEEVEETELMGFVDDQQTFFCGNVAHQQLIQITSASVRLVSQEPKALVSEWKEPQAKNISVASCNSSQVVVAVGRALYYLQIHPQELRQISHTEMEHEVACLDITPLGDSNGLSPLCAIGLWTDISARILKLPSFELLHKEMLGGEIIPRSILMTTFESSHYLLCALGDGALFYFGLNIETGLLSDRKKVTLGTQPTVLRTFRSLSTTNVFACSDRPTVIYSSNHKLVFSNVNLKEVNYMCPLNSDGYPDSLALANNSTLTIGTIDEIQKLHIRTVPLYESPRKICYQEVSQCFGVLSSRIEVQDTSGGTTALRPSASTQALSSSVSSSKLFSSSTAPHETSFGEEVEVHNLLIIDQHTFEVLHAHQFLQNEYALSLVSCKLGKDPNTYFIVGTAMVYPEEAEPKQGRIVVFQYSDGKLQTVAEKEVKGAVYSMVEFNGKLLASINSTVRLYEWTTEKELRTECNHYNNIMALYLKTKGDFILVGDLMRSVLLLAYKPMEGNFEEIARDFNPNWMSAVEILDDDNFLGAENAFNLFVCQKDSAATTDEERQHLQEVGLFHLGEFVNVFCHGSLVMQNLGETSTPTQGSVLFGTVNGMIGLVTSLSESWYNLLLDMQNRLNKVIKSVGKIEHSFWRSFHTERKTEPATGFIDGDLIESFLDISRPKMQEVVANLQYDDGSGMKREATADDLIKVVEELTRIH
T1 sequence (P15170 whole entry): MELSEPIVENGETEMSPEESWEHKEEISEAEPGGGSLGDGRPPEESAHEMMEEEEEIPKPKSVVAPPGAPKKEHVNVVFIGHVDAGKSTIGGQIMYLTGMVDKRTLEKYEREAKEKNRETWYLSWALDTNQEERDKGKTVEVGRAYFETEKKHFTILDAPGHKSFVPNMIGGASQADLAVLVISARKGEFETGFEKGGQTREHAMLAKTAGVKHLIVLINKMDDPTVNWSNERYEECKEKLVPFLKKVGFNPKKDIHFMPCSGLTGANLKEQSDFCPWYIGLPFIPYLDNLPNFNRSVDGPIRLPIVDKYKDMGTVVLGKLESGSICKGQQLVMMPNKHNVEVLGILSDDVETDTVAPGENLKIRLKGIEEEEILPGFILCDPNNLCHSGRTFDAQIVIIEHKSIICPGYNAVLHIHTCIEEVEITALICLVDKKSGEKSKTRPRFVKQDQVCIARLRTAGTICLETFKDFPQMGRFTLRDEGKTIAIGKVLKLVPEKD
T1 sequence (Q96SW2 whole entry): as the sequence (Q96SW2 whole entry) above
T1 sequence (Q16531 2-1140 partner limits assumed): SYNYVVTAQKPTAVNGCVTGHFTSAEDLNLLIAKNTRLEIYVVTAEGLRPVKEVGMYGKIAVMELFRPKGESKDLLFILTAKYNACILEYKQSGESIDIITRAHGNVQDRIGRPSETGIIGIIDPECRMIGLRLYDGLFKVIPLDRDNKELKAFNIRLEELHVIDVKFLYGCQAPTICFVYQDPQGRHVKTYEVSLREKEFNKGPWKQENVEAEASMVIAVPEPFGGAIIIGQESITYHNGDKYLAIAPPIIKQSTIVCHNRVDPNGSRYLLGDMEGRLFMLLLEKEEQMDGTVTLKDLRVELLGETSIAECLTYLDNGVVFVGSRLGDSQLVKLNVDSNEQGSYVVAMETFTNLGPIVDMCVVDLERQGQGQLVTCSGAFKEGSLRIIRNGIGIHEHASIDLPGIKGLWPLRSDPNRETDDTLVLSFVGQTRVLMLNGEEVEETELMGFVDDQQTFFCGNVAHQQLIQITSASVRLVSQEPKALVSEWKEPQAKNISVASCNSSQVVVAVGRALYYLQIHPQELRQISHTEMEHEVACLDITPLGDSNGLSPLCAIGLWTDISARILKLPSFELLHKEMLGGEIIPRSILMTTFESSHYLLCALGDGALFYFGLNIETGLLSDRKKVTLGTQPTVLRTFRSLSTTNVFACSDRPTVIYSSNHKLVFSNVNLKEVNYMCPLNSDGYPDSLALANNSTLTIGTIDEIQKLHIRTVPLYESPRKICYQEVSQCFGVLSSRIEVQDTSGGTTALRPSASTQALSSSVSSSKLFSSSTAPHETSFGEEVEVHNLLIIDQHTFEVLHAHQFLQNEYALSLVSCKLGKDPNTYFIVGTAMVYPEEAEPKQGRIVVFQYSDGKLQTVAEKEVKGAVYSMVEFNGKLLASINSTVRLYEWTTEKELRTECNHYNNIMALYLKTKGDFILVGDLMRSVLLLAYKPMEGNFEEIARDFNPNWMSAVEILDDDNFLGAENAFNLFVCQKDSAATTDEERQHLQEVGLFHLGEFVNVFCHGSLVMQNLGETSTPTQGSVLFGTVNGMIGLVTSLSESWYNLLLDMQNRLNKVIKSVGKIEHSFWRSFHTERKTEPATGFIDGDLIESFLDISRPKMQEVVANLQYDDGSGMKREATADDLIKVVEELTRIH

SMILES	IC50 (CRBN-DDB1)	DC50 (GSPT1)
O=C1CCC(c2c(F)cc(N3CC(OC(=O)NC4CCOCC4)C3)cc2F)C(=O)N1 (stereo not shown) [Compound 94, 1-(4-(2,6-dioxopiperidin-3-yl)-3,5-difluorophenyl)azetidin-3-yl (tetrahydro-2H-pyran-4-yl)carbamate]	100 to 1000 nM	> 300 nM
CC1(C)CCC(NC(=O)OC2CN(c3cc(F)c(C4CCC(=O)NC4=O)c(F)c3)C2)CC1 (stereo not shown) [Compound 93, 1-(4-(2,6-dioxopiperidin-3-yl)-3,5-difluorophenyl)azetidin-3-yl (4,4-dimethylcyclohexyl) carbamate]	≤ 100 nM	≤ 30 nM
Cc1ccc(NC(=O)NC2CN(c3cc(F)c(C4CCC(=O)NC4=O)c(F)c3)C2)cc1OC(F)F (stereo not shown) [Compound 21, 1-(3-(difluoromethoxy)-4-methylphenyl)-3-(1-(4-(2,6-dioxopiperidin-3-yl)-3,5-difluorophenyl)azetidin-3-yl)urea]	100 to 1000 nM	≤ 30 nM
O=C1CCC(c2c(F)cc(N3CC(OC(=O)NC45CC(CF)(C4)C5)C3)cc2F)C(=O)N1 (stereo not shown) [Compound 68, 1-(4-(2,6-dioxopiperidin-3-yl)-3,5-difluorophenyl)azetidin-3-yl (3-(fluoromethyl)bicyclo[1.1.1]pentan-1-yl) carbamate]	≤ 100 nM	30 to 300 nM
O=C1CCC(c2c(F)cc(N3CC(OC(=O)N[C@H]4CCOC4)C3)cc2F)C(=O)N1 (stereo partly drawn) [Compound 81, 1-(4-(2,6-dioxopiperidin-3-yl)-3,5-difluorophenyl)azetidin-3-yl ((S)-tetrahydrofuran-3-yl)carbamate]	100 to 1000 nM	> 300 nM
O=C1CCC(c2c(F)cc(N3CC(OC(=O)NC45CC(F)(C4)C5)C3)cc2F)C(=O)N1 (stereo not shown) [Compound 62, 1-(4-(2,6-dioxopiperidin-3-yl)-3,5-difluorophenyl)azetidin-3-yl(3-fluorobicyclo[1.1.1]pentan-1-yl)carbamate]	100 to 1000 nM	> 300 nM
Cc1ccc(NC(=O)OC2CN(c3ccc(C4CCC(=O)NC4=O)cc3)C2)cc1Cl (stereo not shown) [Compound 55, 1-(4-(2,6-dioxopiperidin-3-yl)phenyl)azetidin-3-yl (3-chloro-4-methylphenyl)carbamate]	> 1000 nM	30 to 300 nM
COc1cc(C)c(Cl)cc1NC(=O)NC1CN(c2ccc(C3CCC(=O)NC3=O)cc2)C1 (stereo not shown) [Compound 72, 1-(5-chloro-2-methoxy-4-methylphenyl)-3-(1-(4-(2,6-dioxopiperidin-3-yl)phenyl)azetidin-3-yl)urea]	> 1000 nM	30 to 300 nM
O=C1CCC(c2c(F)cc(N3CC(OC(=O)NC45CC(N6CCOCC6)(C4)C5)C3)cc2F)C(=O)N1 (stereo not shown) [Compound 71, 1-(4-(2,6-dioxopiperidin-3-yl)-3,5-difluorophenyl)azetidin-3-yl(3-morpholinobicyclo [1.1.1]pentan-1-yl) carbamate]	100 to 1000 nM	> 300 nM
O=C1CCC(c2c(F)cc(N3CC(OC(=O)Nc4ccc(F)c(OC(F)F)c4)C3)cc2F)C(=O)N1 (stereo not shown) [Compound 32, 1-(4-(2,6-dioxopiperidin-3-yl)-3,5-difluorophenyl)azetidin-3-yl (3-(difluoromethoxy)-4-fluorophenyl)carbamate]	100 to 1000 nM	≤ 30 nM
Cc1ccc(N(C)C(=O)OC2CN(c3cc(F)c(C4CCC(=O)NC4=O)c(F)c3)C2)cc1Cl (stereo not shown) [Compound 145, 1-(4-(2,6-dioxopiperidin-3-yl)-3,5-difluorophenyl)azetidin-3-yl(3-chloro-4-methylphenyl)(methyl) carbamate]	≤ 100 nM	30 to 300 nM
Cc1ccc(NC(=O)OC2CN(c3cc(F)c(C4CCC(=O)NC4=O)c(F)c3)C2)cc1OC(F)F (stereo not shown) [Compound 6, 1-(4-(2,6-dioxopiperidin-3-yl)-3,5-difluoropheny) azetidin-3-yl(3-(difluoromethoxy)-4-methylphenyl) carbamate]	100 to 1000 nM	30 to 300 nM
O=C1CCC(c2c(F)cc(N3CC(OC(=O)NC4Cc5ccccc5C4)C3)cc2F)C(=O)N1 (stereo not shown) [Compound 136, 1-(4-(2,6-dioxopiperidin-3-yl)-3,5-difluorophenyl)azetidin-3-yl (2,3-dihydro-1H-inden-2-yl)carbamate]	≤ 100 nM	≤ 30 nM
COc1c(N2CC(OC(=O)Nc3ccc(C)c(Cl)c3)C2)ccc(C2CCC(=O)NC2=O)c1Cl (stereo not shown) [Compound 59, 1-(3-chloro-4-(2,6-dioxopiperidin-3-yl)-2-methoxyphenyl)azetidin-3-yl (3-chloro-4-methylphenyl)carbamate]	> 1000 nM	> 300 nM
